Paper PMC9532951, “Identification and characterization of a novel SNAT2 (SLC38A2) inhibitor reveals synergy with glucose transport inhibition in cancer cells” (Frontiers in Pharmacology, 2022)
Values joined by “and” are separate entries in the source; they are usually repeats but may differ in a detail not shown here. Equal values may be shown once.

Key:
MDA-MB-231 cells = experiment: Growth assay (IncuCyte confluence), MDA-MB-231; type: cell-based, human; set-up: key to Growth (Figure 6A) / cell confluence (Figure 6F): % confluence; settings: MDA-MB-231; Bay876 1uM; replicates 1-3
Experimental: (§1) Cells were seeded on 96-well flat bottom plates at approximately 3000 cells/well and incubated in growth medium (DMEM/F12 supplemented with 10% FBS, 2 mM glutamine) for 24 h. The next day, the growth medium was aspirated and exchanged with 300 μL/well of growth medium containing compounds at the indicated concentration. For live cell analysis, plates were placed in the IncuCyte system (Essen Bioscience), which was housed in a cell incubator (37°C, humidified atmosphere composed of 95% air and 5% CO2) and confluence measured at 6-h intervals or at the assay endpoint when untreated control cells reached a confluency >90%. Antibiotics (10 U/mL penicillin and 10 μg/ml streptomycin) were included in the treatment solutions.
(§2) Growth curves were generated using the Gompertz function of OriginPro software: y=ae^−e^(−k(x−xc))
(§3) Where a is the maximum confluence or upper asymptote, k is the growth rate coefficient, xc is the time point at which 50% confluence is reached (inflection point) and e is Euler’s number. Cell growth data are shown as % confluence.
(§4) Synergism between drug combinations was quantified using ZIP synergy scoring as calculated by SynergyFinder ([Yadav et al., 2015]).

[1] = set-up: method as in Kopitz et al., 2016; settings: mice, cancer therapeutic dose; ref Kopitz et al., 2016; cited from earlier work
HCC1806 cells [2] = experiment: Growth assay (IncuCyte confluence), HCC1806; type: cell-based, human; settings: Bay876 alone
Experimental: as §1, §2, §3

HPAFII cells = experiment: Growth assay (IncuCyte confluence), HPAFII; type: cell-based, human; set-up: key to Growth (Figure 6A) / cell confluence (Figure 6F): % confluence; settings: Bay876 1uM, replicates 1-3
Experimental: as §1, §2, §3, §4

SKOV3 xenografts = system: SKOV3 xenografts; set-up: method as in Ma et al., 2018; settings: mice, ref Ma et al., 2018, cited from earlier work
GLUT1 [3] = molecular target: T1, GLUT1 (Homo sapiens, UniProt P11166); experiment: [14C]glucose uptake in MDA-MB-231 cells; type: cell-based; set-up: endogenous in cells; host or cells: MDA-MB-231 (A17)
T1 sequence (P11166 1-492): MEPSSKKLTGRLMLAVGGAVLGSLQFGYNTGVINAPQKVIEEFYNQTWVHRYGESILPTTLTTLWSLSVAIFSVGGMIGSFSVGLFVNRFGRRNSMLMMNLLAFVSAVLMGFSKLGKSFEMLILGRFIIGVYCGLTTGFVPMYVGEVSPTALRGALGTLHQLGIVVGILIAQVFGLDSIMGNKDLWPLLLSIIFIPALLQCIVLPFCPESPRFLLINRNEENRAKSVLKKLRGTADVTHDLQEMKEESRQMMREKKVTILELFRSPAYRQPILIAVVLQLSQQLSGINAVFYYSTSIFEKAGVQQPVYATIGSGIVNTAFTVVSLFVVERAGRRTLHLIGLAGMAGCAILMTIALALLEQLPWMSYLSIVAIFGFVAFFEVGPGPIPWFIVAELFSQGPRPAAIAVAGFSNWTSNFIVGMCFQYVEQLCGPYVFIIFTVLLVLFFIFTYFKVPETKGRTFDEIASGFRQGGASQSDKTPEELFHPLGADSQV

GLUT1 [4] = molecular target: T1, GLUT1; experiment: [14C]glucose uptake in SKOV3 cells; type: cell-based; set-up: endogenous in cells; host or cells: SKOV3 (A19)
Experimental: (§5) […] Modified Hanks HEPES-buffered salts solution (mHBSS; 137 mM NaCl; 5.4 mM KCl; 2.7 mM K2HPO4; 1 mM CaCl2; 0.5 mM MgCl2; 0.44 mM KH2PO4; 0.4 mM MgSO4; 5 mM D-glucose; 5 mM HEPES; pH 7.4) was used to wash and incubate cells where sodium dependent transport was measured, while N-methyl-D-glucamine (NMDG) and potassium salts substituted sodium in NMDG mHBSS to measure sodium independent uptake. For the assay, cells were seeded in 35 mm dishes and, once confluent, […] of ≥2000 cpm/nmol ([…]). After 6 min, cells were washed thrice with ice-cold mHBSS, lysed with 500 µl of 0.1 M HCl, detached with a cell scraper and triturated. A 400 µl aliquot was used for scintillation counting, while the remainder was saved for protein mass quantification by Bradford assay. Transport rates were normalised to the protein content of the culture dish.

HCC1806 cells [5] = experiment: Glutamine in media supernatant by LC-MS (glutamine consumption); type: cell-based, human; settings: Bay-876 1 μM
Experimental: Amino acids were analyzed with an Orbitrap Q-Exactive Plus coupled to an UltiMate 3000 RSLCnano system (Thermo Fisher) as described previously ([Gauthier-Coles et al., 2021]).

GLUT1 [6] = molecular target: T1, GLUT1; experiment: [14C]glucose uptake in HPAFII cells; type: cell-based; set-up: endogenous in cells; host or cells: MDA-MB-231 (A17), HPAFII (A18), SKOV3 (A19)
Experimental: as §5

HCC1806 cells [7] = experiment: Assay of glycolytic activity (extracellular lactate); type: cell-based, human; settings: > 0.1 μM Bay-876
Experimental: Glycolytic activity was measured by detecting extracellular lactate levels over a 48-h time course. HCC1806 and HPAFII cells were seeded on a 24-well plate at approximately 500,000 and 700,000 cells/well, respectively, and incubated in growth medium overnight. The following day, the growth medium was aspirated and each well was washed once with growth medium and 1.3 ml of the treatment solution was added to begin the time-course. In addition to sampling the medium at the start of the experiment, 50 μL was collected from each well at the following time points: 9, 24 and 48 h. Samples were stored at −20°C until further use. Lactate was detected by an enzymatic assay, which consisted of combining in microcentrifuge tubes: 5 μl of sample, 45 μl of water; 25 μl of 40 mM NAD^+; 421 μl of buffer (1M glycine, 600 mM hydrazine sulfate, 5.6 mM EDTA; adjusted to pH 9.5 with sodium hydroxide); and 4 μL of L-lactate dehydrogenase solved at 300U/mL (3.33 mg/ml). The tubes were briefly vortexed and incubated for 15 min before transferring 200 μL of the mixture to a 96-well plate. The calibration curve spanned final concentrations from 5 to 500 μM. Absorbance was measured at 340 nm to detect NADH. Lactate production was normalised to total cellular protein per well as measured by the Bradford assay.

B0AT1 (SLC6A19) = molecular target: T2, B0AT1 (SLC6A19) (Homo sapiens, UniProt Q695T7); experiment: Leucine uptake in CHO cells stably expressing human B0AT1 and collectrin; type: cell-based; settings: 150 µM leucine, hit compounds at 30 µM, n = 3
T2 construct: expressed in transfected cells
T2 sequence (Q695T7 1-634): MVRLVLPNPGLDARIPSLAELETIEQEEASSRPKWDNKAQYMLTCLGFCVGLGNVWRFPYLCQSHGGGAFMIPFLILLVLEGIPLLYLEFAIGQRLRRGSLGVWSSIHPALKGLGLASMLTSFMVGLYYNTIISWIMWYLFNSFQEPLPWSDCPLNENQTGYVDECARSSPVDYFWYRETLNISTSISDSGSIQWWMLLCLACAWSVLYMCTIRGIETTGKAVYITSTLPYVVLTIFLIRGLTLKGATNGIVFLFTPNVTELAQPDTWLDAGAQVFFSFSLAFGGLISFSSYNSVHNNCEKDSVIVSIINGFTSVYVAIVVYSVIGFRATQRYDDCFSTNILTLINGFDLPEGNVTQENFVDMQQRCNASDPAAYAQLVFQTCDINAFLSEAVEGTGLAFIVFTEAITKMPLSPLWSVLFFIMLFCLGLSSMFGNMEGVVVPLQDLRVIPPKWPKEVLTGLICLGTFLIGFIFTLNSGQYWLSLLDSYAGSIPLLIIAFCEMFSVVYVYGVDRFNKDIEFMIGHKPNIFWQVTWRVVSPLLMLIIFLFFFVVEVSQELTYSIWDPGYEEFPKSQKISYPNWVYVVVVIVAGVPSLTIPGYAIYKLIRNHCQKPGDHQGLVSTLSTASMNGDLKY
T2 sequence (Q9HBJ8 15-222 partner): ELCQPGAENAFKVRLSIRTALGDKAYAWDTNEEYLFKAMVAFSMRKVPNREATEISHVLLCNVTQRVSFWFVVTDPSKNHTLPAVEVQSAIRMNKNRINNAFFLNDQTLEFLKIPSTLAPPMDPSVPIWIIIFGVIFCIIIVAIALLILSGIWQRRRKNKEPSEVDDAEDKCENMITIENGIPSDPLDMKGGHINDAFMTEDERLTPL

Leucine uptake, Mean (B0AT1 (SLC6A19)) [nmol / mg protein x 6 min]	Compound	cell confluence (Figure 6F) (MDA-MB-231 cells)	oral availability and tolerability [1]	growth of HCC1806 cells (HCC1806 cells [2])	cell confluence (Figure 6F) (HPAFII cells)	lethality (SKOV3 xenografts; dose raised from 4.0 mg/kg/day to 7.5 mg/kg/day, 18-days treatment)	body weight (SKOV3 xenografts)	tumour growth (SKOV3 xenografts)	inhibition of glucose uptake (GLUT1 [3]; 1 µM, 100 µM glucose)	Glucose uptake (nmol / mg protein x 6 min) (GLUT1 [3]; MDA-MB-231, 1uM)	inhibition of glucose uptake (GLUT1 [4]; 1 µM, 100 µM glucose)	Glucose uptake (nmol / mg protein x 6 min) (GLUT1 [4]; SKOV3, 1uM)	glutamine consumption (HCC1806 cells [5])	inhibition of glucose uptake (GLUT1 [6]; 1 µM, 100 µM glucose)	Glucose uptake (nmol / mg protein x 6 min) (GLUT1 [6]; HPAFII, 1uM)	lactate production (HCC1806 cells [7])
–	Cc1c(NC(=O)c2cc(C(N)=O)nc3cc(F)ccc23)c(C(F)(F)F)nn1Cc1ccc(C#N)cc1 [Bay-876]	97.85 and 98.65 and 98.1	orally available and tolerated in mice	quite sensitive	97.55 and 97.2 and 90.5	caused the death of all animals	did not reduce body weight	reduced the growth of SKOV3 xenografts	inhibited glucose uptake to comparable levels as 2-DG	4.491 nmol / mg protein x 6 min and 4.087 nmol / mg protein x 6 min and 3.799 nmol / mg protein x 6 min	inhibited glucose uptake to comparable levels as 2-DG	2.054 nmol / mg protein x 6 min and 1.028 nmol / mg protein x 6 min and 1.361 nmol / mg protein x 6 min	accelerated	inhibited glucose uptake to comparable levels as 2-DG	2.423 nmol / mg protein x 6 min and 2.258 nmol / mg protein x 6 min and 2.749 nmol / mg protein x 6 min	blocked completely
19.8324	CCNC(=O)/C=C/c1cccc(Br)c1 [Cinromide]	–	–	–	–	–	–	–	–	–	–	–	–	–	–	–
